target: MAPK13 (Homo sapiens (Human), UniProt O15264); conditions: read-out: MAPK13 IC50
Sequence (O15264 whole entry): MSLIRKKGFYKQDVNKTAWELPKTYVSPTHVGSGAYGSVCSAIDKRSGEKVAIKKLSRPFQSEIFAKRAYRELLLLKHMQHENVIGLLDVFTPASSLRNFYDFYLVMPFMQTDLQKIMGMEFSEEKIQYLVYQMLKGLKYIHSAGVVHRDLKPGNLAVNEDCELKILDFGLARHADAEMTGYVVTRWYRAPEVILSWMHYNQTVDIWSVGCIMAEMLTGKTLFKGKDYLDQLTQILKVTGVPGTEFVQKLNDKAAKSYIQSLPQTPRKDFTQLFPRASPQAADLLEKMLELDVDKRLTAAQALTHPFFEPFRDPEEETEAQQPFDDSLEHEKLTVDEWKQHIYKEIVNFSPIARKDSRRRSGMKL

Compound	IC50
Cc1ccc(-n2nc(C(C)(C)C)cc2NC(=O)Nc2ncc(CCc3ccnc(NC(=O)C4CCC4)c3)s2)cc1 [Compound 332, Cyclobutanecarboxylic acid [4-(2-{2-[3-(5-tert-butyl-2-p-tolyl-2H-pyrazol-3-yl)-ureido]-thiazol-5-yl}-ethyl)-pyridin-2-yl]-amide]	0.018 µM

same assay, conditions: read-out: MAPK13 inhibition

Compound	IC50
CC(=O)Nc1cc(CCc2cnc(NC(=O)Nc3cc(C(C)(C)C)no3)s2)ccn1 [Compound 382]	< 0.25 µM
Cc1ccc(-n2nc(C(C)(C)C)cc2NC(=O)Nc2ncc(CCc3ccnc(NC(=O)N4CCCC4)c3)s2)cc1 [Compound 337, Pyrrolidine-1-carboxylic acid [4-(2-{2-[3-(5-tert-butyl-2-p-tolyl-2H-pyrazol-3-yl)-ureido]-thiazol-5-yl}-ethyl)-pyridin-2-yl]-amide]	< 0.25 µM
CC(C)(C)c1cc(NC(=O)Nc2ccc(Oc3ccncc3)cc2F)n(-c2ccc(F)cc2)n1 [Compound 303, 1-[5-tert-Butyl-2-(4-fluoro-phenyl)-2H-pyrazol-3-yl]-3-[2-fluoro-4-(pyridin-4-yloxy)-phenyl]-urea]	< 0.25 µM
CC(C)(C)c1cc(NC(=O)Nc2ccc(Oc3ccncc3)cc2F)n(-c2cccc(F)c2)n1 [Compound 306, 1-[5-tert-butyl-2-(3-fluorophenyl)pyrazol-3-yl]-3-[2-fluoro-4-(4-pyridyloxy)phenyl]urea]	< 0.25 µM
CC(=O)Nc1cc(Oc2ccc(NC(=O)Nc3cc([Si](C)(C)C)ccc3F)c(F)c2)ccn1 [Compound 399, N-(4-{3-Fluoro-4-[3-(2-fluoro-5-trimethylsilanyl-phenyl)-ureido]-phenoxy}-pyridin-2-yl)-acetamide]	< 0.25 µM
CC(C)C(=O)Nc1cc(CCc2cnc(NC(=O)Nc3cc(C(C)(C)C)nn3C)s2)ccn1 [Compound 349, N-[4-(2-{2-[3-(5-tert-Butyl-2-methyl-2H-pyrazol-3-yl)-ureido]-thiazol-5-yl}-ethyl)-pyridin-2-yl]-isobutyramide]	< 0.25 µM
COCC(=O)Nc1cc(Oc2ccc(NC(=O)Nc3cc(C4(C)CSC4)nn3-c3ccc(C)cc3)cc2)ccn1 [Compound 260, 2-Methoxy-N-[4-(4-{3-[5-(3-methyl-thietan-3-yl)-2-p-tolyl-2H-pyrazol-3-yl]-ureido}-phenoxy)-pyridin-2-yl]-acetamide]	< 0.25 µM
CC(=O)Nc1cc(CCc2ccc(NC(=O)Nc3cc(C(C)(C)C)nn3-c3ccc(C)cc3)c(F)c2)ccn1 [Compound 329, N-[4-(2-{4-[3-(5-tert-Butyl-2-p-tolyl-2H-pyrozol-3-yl)-ureido]-3-fluoro-phenyl}-ethyl)-pyridin-2-yl]-acetamide]	< 0.25 µM
CC(C)(C)c1cc(NC(=O)Nc2ncc(CCc3ccnc(NC(=O)C4CCC4)c3)s2)n(CC2CC2)n1 [Compound 339, Cyclobutanecarboxylic acid [4-(2-{2-[3-(5-tert-butyl-2-cyclopropylmethyl-2H-pyrazol-3-yl)-ureido]-thiazol-5-yl}-ethyl)-pyridin-2-yl]-airdde]	< 0.25 µM
CC(=O)Nc1cc(CCc2ccc(NC(=O)Nc3cc(C(C)(C)C)on3)c(F)c2)ccn1 [Compound 358, N-[4-(2-{4-[3-(5-tert-Butyl-isoxazol-3-yl)-ureido]-3-fluoro-phenyl}-ethyl)-pyridin-2-yl]-acetamide]	> 1 µM
COCCC(=O)Nc1cc(CCc2cnc(NC(=O)Nc3cc(C(C)(C)C)nn3CC3CC3)s2)ccn1 [Compound 342, N-[4-(2-{2-[3-(5-tert-Butyl-2-cyclopropylmethyl-2H-pyrazol-3-yl)-ureido]-thiazol-5-yl}-ethyl)-pyridin-2-yl]-3-methoxy-propionamide]	< 0.25 µM
CC(=O)Nc1cc(CCc2cnc(NC(=O)Nc3cc(C(C)(C)C)nn3CC3CC3)s2)ccn1 [Compound 325, N-[4-(2-{2-[3-(5-tert-Butyl-2-cyclopropylmethyl-2H-pyrazol-3-yl)-ureido]-thiazol-5-yl}-ethyl)-pyridin-2-yl]-acetamide]	< 0.25 µM
Cc1ccc(-n2nc(C(C)(C)C)cc2NC(=O)Nc2ncc(CCc3ccnc(NC(=O)C4CCC4)c3)s2)cc1 [Compound 332, Cyclobutanecarboxylic acid [4-(2-{2-[3-(5-tert-butyl-2-p-tolyl-2H-pyrazol-3-yl)-ureido]-thiazol-5-yl}-ethyl)-pyridin-2-yl]-amide]	< 0.25 µM

— patent US11407771B2 (priority 2018, dated 2022)
